Changes are numbered by the printed parent chain. Each block holds one molecule with its values, some of them ahead of it.
How the values were obtained:
Rattus norvegicus [1] = assay: Antihypertensive activity in conscious normotensive rat assessed as inhibition of angiotensin 2-induced pressor response at 1 mg/kg, iv after 6 hrs; format: functional
[2] = target: T1, Type-1 angiotensin II receptor (Oryctolagus cuniculus, UniProt P34976); assay: Antagonist activity at angiotensin AT1 receptor in rabbit thoracic aortic rings; format: functional; details: read-out: pA2 (converted)
T1 sequence (P34976 whole entry): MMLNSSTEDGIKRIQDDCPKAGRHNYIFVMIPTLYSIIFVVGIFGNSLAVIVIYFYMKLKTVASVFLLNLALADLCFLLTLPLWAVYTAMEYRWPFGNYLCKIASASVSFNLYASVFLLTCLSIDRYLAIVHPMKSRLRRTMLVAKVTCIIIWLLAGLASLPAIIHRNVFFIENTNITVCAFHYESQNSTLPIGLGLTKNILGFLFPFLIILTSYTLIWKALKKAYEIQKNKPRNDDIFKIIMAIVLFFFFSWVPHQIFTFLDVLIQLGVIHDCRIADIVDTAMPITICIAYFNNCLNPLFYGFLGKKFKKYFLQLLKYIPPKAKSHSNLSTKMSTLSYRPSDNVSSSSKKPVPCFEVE

[3] = Displacement of radiolabeled angiotensin2 from angiotensin AT1 receptor in rat adrenal cortex membranes; format: cell membranes, Membrane
Rattus norvegicus [4] = assay: Antihypertensive activity in iv dosed renal artery ligated rat model assessed as reduction of means arterial blood pressure by 30 mm Hg; format: functional
[5] = target: T2, Type-1 angiotensin II receptor (Bos taurus, UniProt P25104); assay: Displacement of radiolabeled angiotensin 2 from angiotensin AT1 receptor in bovine adrenal cortex membranes; format: cell membranes, Membrane
T2 sequence (P25104 whole entry): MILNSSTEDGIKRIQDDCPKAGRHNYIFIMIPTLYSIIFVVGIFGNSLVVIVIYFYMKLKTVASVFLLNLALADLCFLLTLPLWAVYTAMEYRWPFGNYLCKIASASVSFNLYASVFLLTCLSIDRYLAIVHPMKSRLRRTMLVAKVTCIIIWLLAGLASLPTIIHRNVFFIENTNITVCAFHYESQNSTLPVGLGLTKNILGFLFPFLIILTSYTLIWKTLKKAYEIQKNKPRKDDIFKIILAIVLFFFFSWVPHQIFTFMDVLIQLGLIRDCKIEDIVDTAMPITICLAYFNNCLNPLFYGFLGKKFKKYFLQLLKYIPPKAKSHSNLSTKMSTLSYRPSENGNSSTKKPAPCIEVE

[6] = target: T3, Type-1 angiotensin II receptor (Cavia porcellus) (UniProt Q9WV26); assay: Antagonist activity at angiotensin AT1 receptor in guinea pig aorta assessed as reduction of angiotensin 2-induced contractile response; format: functional, tissue-based
T3 sequence (whole entry): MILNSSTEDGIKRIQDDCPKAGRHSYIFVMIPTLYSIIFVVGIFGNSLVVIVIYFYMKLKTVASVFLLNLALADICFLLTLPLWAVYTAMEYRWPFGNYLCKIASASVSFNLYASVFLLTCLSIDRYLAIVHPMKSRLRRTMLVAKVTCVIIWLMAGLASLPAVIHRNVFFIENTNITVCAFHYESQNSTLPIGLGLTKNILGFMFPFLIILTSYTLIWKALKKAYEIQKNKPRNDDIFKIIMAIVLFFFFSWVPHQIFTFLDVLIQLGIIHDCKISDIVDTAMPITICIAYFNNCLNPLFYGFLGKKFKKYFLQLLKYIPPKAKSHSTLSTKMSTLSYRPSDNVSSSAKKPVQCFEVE

[7] = Antagonist activity at angiotensin AT1 receptor in rat uterine membranes; format: functional, cell membranes
[8] = target: T1, Type-1 angiotensin II receptor; assay: Antagonist activity at angiotensin AT1 receptor in rabbit aorta assessed as reduction of angiotensin 2-induced contractile response; format: functional, tissue-based; details: read-out: pA2 (converted)
[9] = target: T4, Type-1 angiotensin II receptor (Homo sapiens, UniProt P30556); assay: Antagonist activity at angiotensin AT1 receptor in human PLC-PRF5 cells; format: functional, cell-based
T4 sequence (P30556 whole entry): T1 sequence (P34976 whole entry) with M2I, A49V, V254I, V270I, H272R, K311R, S349T, V353A

[10] = target: T4, Type-1 angiotensin II receptor; assay: Displacement of [3H]-angiotensin 2 from angiotensin AT1 receptor in human PLC-PRF5 cells; format: cell-based
[11] = target: T5, Type-1 angiotensin II receptor (Cavia porcellus, UniProt Q9WV26); assay: Binding affinity to angiotensin AT1 receptor in guinea pig adrenal cortex membranes; format: cell membranes, Membrane
T5 sequence (Q9WV26 whole entry): T3 sequence (whole entry)

[12] = Displacement of [125I]-angiotensin 2 from angiotensin AT1 receptor in rat liver membranes; format: cell membranes, Membrane
Rattus norvegicus [13] = assay: Antihypertensive activity in iv dosed anesthetized ganglionic blocked rat model assessed as reduction of angiotensin 2-induced response; format: functional, organism-based
[14] = Oral bioavailability in cynomolgus monkey; format: ADME, organism-based, Macaca fascicularis; details: in vivo
[15] = Binding affinity to angiotensin AT1 receptor in rat liver membranes; format: cell membranes, Membrane
[16] = Oral bioavailability in rat; format: ADME, organism-based; details: in vivo
[17] = Oral bioavailability in dog; format: ADME, organism-based, Canis lupus familiaris; details: in vivo
Rattus norvegicus [18] = assay: Inhibition of angiotensin 2-induced response in iv dosed conscious Sprague-Dawley rat; format: functional
[19] = Displacement of [125I]-Sar1Ile8-angiotensin 2 from angiotensin AT1 receptor in rat adrenal cortical membranes; format: cell membranes, Membrane
Rattus norvegicus [20] = assay: Antihypertensive activity in iv dosed salt depleted SHR rat model assessed as reduction of angiotensin 2-induced mean arterial pressure at […]; format: functional, Artery; parameters: scale not given: the % may be the effect or the level left
Rattus norvegicus [21] = assay: Antihypertensive activity in iv dosed salt depleted SHR rat model assessed as reduction of angiotensin 2-induced response; format: functional
[22] = Displacement of [125I]-Sar1Ile8-angiotensin 2 from angiotensin AT1 receptor in rat aortic smooth muscle cells
Rattus norvegicus [23] = assay: Antihypertensive activity in po dosed conscious rat; format: functional; details: read-out: ED50
Rattus norvegicus [24] = assay: Antihypertensive activity in iv dosed conscious rat; format: functional
[25] = target: T6, Type-2 angiotensin II receptor (Homo sapiens, UniProt P50052); assay: (§1) Binding affinity to angiotensin AT2 receptor
T6 sequence (P50052 whole entry): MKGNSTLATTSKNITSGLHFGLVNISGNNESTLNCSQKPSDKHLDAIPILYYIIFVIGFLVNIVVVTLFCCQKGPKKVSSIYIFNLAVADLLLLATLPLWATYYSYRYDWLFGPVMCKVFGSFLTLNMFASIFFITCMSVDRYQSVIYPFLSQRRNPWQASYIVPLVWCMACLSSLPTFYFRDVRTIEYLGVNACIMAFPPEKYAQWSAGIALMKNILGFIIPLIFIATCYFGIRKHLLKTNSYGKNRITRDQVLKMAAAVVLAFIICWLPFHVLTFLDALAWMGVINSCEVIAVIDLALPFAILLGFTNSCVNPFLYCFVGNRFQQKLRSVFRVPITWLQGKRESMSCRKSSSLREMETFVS

[26] = target: T7, Type-2 angiotensin II receptor (Homo sapiens) (UniProt P50052); assay: as §1; details: concentration not given here
T7 sequence (whole entry): T6 sequence (P50052 whole entry)

Rattus norvegicus [27] = assay: Inhibition of angiotensin 2-induced response in intraduodenally dosed pithed normotensive rat; format: functional; details: Rattus norvegicus, intraduodenal
Rattus norvegicus [28] = assay: Inhibition of angiotensin 2-induced response in iv dosed pithed normotensive rat; format: functional
Homo sapiens = assay: Metabolic stability in iv and po dosed human assessed as conversion of EXP3174; format: ADME, organism-based; details: in vivo
Rattus norvegicus [29] = assay: Cardiotoxicity in left renal artery-ligated hypertensive rat model assessed as reduction of heart rate at 0.3 to 3 mg/kg, administered intra-arterially for 6 days; format: toxicity, organism-based; parameters: dose 0.3-3 mg/kg; scale not given: the % may be the effect or the level left; details: in vivo, other, 144 h
[30] = target: T4, Type-1 angiotensin II receptor; assay: Displacement of [3H]-angiotensin 2 from angiotensin AT1 receptor
Rattus norvegicus [31] = assay: Cardiotoxicity in left renal artery-ligated hypertensive rat model assessed as reduction of heart rate at 1 to 10 mg/kg, po for 6 days; format: toxicity, organism-based; parameters: dose 1-10 mg/kg, route oral; scale not given: the % may be the effect or the level left; details: in vivo, 144 h

SMILES: CCc1nc2c(C)cc(C)nn2c1Cc1ccc(-c2ccccc2-c2nn[nH]n2)cc1
- inhibition in vivo at 1 mg/kg (Rattus norvegicus [1]): 90%

SMILES: CCCCc1nc(Cl)c(C(=O)O)n1Cc1ccc(-c2ccccc2-c2nn[nH]n2)cc1 [CARBOXYLIC ACID METABOLITE]
- IC50 [3]: 0.37 nM
- ED30 (Rattus norvegicus [4]): 0.038 mg/kg

SMILES: CCCc1nc(C(C)(C)O)c(C(=O)O)n1Cc1ccc(-c2ccccc2-c2nnn[nH]2)cc1 [OLMESARTAN]
- IC50 [5]: 7.7 nM
- pD2 [6]: 9.9

SMILES: CCCCN1CC2(CN1Cc1ccc(-c3ccccc3S(=O)(=O)NC(=O)c3ccccc3)cc1)C(=O)CCC2=O
- IC50 [9]: 12 nM
- Ki [10]: 10 nM

SMILES: Cc1cc(Sc2ccc(-c3ccccc3-c3nn[nH]n3)cc2)c2ccccc2n1
- IC50 [11]: 370 nM

SMILES: CCCCc1nc(Cl)c(C(=O)[O-])n1Cc1cccc2c1ccn2-c1ccccc1-c1nn[n-]n1.[Li+].[Li+]
- ED50 (Rattus norvegicus [18]): 0.22 µmol/kg
- Ki [19]: 18.4 nM
- Activity (Rattus norvegicus [20]): 39%
- ED50 (Rattus norvegicus [21]): 0.03 µmol/kg
- Ki [22]: 7.6 nM

SMILES: CCCCc1nc2ccc(NC(=O)N(C)C(C)C)cc2c(=O)n1Cc1ccc(-c2ccccc2-c2nn[nH]n2)cc1
- ED50 (Rattus norvegicus [23]): 0.68 mg/kg
- ED50 (Rattus norvegicus [24]): 0.25 mg/kg

SMILES: CCc1nc2c(C)cc(C)nc2n1Cc1ccc(-c2ccsc2-c2nn[nH]n2)cc1
- IC50 [25]: 2.3 nM
- inhibition [26]: 90%

SMILES: CCc1nc2c(C)cc(C)nc2n1Cc1ccc(-c2ccccc2S(=O)(=O)NC(=O)NCC2CC2)cc1
- ED50 (Rattus norvegicus [27]): 0.012 mg/kg
- ED50 (Rattus norvegicus [28]): 0.014 µmol/kg
- IC50 [15]: 1000 nM

Now from value to molecule, other results behind:

- Kb [2]: 5.01 nM
SMILES: CCCCc1nc2cc(OC)cc(C(=O)O)c2n1Cc1ccc(N(CC)C(C(=O)O)c2ccccc2)cc1 (stereo not drawn)

- IC50 [7]: 5.1 nM
- Kb [8]: 1.38 nM
SMILES: CCCCc1nn(CCCC)c(=O)n1Cc1ccc(-c2ccccc2-c2nn[nH]n2)cc1

- IC50 [12]: 0.8 nM
- IC50 (Rattus norvegicus [13]): 6.2 mg/kg
SMILES: CCCc1nc(-n2cccc2C(=O)C(F)(F)F)c(C(=O)O)n1Cc1ccc(-c2ccccc2-c2nn[nH]n2)cc1

- bioavailability [14]: > 50%
- Ki [15]: 0.76 nM
- bioavailability [16]: > 50%
- bioavailability [17]: > 50%
SMILES: CCCN(Cc1ccc(-c2ccccc2-c2nn[nH]n2)cc1)c1ncccc1C(=O)O

- Stability (Homo sapiens): 14%
SMILES: CCCCc1nc(Cl)c(CO)n1Cc1ccc(-c2ccccc2-c2nn[nH]n2)cc1 [LOSARTAN]

- Ki [30]: 2 nM
SMILES: CCCCc1nc(Cl)c(C(=O)O)n1Cc1ccc2oc(-c3ccccc3-c3nn[nH]n3)c(Br)c2c1 [ZOLASARTAN]
- Activity (Rattus norvegicus [29]): < 15%
- Activity (Rattus norvegicus [31]): < 15%
